Measured values reported in paper PMC8301926 (Biomolecules, 2021).

Experiments:
[1] = molecular target: T1, recombinant human monoamine oxidase A (hMAO-A) (Homo sapiens, UniProt P21397); test: hMAO-A enzyme kinetics (Lineweaver-Burk, Dixon, secondary plots); type: biochemical; details: for Ki: hMAO-A, from secondary plots; for Inhibition Type, hMAO-A: Lineweaver-Burk and Dixon plots
T1 sequence (P21397 1-527): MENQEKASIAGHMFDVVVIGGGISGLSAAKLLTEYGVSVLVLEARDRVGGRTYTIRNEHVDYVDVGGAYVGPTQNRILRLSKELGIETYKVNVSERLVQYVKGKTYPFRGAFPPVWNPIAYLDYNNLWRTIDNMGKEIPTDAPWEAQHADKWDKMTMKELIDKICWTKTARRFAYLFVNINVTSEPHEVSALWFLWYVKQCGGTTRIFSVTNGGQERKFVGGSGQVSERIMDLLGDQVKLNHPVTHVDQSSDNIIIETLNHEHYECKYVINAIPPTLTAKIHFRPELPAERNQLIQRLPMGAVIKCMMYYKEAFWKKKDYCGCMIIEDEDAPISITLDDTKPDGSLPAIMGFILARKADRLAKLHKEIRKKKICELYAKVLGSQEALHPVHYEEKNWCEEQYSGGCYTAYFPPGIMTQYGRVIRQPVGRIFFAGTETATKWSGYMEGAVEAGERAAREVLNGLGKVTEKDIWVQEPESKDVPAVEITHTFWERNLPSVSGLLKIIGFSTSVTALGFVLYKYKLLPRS

[2] = molecular target: T2, human M3 muscarinic acetylcholine receptor (hM3R) (Homo sapiens, UniProt P20309); test: M3 (h) functional GPCR assay, antagonist effect, intracellular Ca2+; type: cell-based; details: CHO
T2 construct: host or cells: CHO cells

[3] = molecular target: T3, recombinant human monoamine oxidase B (hMAO-B) (Homo sapiens, UniProt P27338); test: hMAO-B enzyme kinetics (Lineweaver-Burk, Dixon, secondary plots); type: biochemical; details: for Ki: hMAO-B, from secondary plots; for Inhibition Type, hMAO-B: Lineweaver-Burk and Dixon plots
T3 sequence (P27338 1-520): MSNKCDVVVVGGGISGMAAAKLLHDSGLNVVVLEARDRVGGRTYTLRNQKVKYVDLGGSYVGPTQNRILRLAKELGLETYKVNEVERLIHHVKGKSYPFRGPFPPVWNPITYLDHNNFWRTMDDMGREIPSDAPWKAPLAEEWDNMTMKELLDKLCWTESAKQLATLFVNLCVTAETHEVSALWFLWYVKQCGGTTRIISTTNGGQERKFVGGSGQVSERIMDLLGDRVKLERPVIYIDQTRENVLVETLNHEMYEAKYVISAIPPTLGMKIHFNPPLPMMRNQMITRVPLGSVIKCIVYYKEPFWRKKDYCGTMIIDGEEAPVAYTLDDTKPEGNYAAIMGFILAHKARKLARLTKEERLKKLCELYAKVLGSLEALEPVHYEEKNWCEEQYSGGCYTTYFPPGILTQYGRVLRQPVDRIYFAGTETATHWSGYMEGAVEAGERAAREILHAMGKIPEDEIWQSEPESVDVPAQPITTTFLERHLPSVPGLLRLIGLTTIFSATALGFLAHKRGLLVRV

[4] = molecular target: T4, human M2 muscarinic acetylcholine receptor (hM2R) (Homo sapiens, UniProt P08172); test: M2 (h) functional GPCR assay, agonist effect, cAMP HTRF; type: cell-based; details: 100 µM; % of control response to 3-µM acetylcholine; CHO cells
T4 construct: host or cells: CHO cells
T4 sequence (P08172 1-466): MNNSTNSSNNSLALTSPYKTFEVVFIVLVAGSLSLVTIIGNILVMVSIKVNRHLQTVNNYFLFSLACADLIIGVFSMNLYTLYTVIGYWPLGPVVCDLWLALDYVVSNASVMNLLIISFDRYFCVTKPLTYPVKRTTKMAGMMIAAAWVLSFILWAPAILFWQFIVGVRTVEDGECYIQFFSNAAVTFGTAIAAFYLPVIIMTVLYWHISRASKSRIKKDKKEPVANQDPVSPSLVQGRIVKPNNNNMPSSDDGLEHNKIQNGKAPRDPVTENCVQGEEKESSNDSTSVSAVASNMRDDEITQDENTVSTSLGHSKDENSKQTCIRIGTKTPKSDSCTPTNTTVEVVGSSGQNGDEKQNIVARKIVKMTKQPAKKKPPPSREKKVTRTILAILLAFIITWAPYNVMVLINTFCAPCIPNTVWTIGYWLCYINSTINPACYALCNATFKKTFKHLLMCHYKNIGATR

T2 sequence (P20309 whole entry): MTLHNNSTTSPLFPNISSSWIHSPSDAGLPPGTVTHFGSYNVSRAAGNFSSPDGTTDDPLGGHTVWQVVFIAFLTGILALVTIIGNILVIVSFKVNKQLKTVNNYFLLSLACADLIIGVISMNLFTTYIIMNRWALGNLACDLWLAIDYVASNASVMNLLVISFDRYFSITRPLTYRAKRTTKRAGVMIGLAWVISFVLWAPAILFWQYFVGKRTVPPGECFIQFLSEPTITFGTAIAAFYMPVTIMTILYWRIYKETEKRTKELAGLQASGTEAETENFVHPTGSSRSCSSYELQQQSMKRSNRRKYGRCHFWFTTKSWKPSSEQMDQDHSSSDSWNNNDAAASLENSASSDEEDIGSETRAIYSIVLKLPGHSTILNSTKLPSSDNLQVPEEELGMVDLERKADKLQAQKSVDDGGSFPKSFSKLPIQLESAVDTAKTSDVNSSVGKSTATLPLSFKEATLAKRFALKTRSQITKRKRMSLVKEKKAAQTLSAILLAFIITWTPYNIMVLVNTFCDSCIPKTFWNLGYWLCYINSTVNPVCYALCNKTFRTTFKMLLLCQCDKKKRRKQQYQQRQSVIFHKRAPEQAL

For `Cc1coc2c1C(=O)C(=O)c1c-2ccc2c(C)cccc12` [Tanshinone I], the Ki ([1]; Kic) was 1.69 ± 0.19 µM, the Ki ([1]; Kiu) was 4.65 ± 0.16 µM and the “Inhibition Type, hMAO-A” value [1] was “Mixed”. For the same compound, the “Inhibition Type, hMAO-A” value ([1]; listed as 1) was “mixed-mode”, the inhibition at 100 µM [2] was 3.3 ± 11.2% and the Ki ([3]; Kic) was 25.6 ± 1.1 µM. For the same compound, the Ki ([3]; Kiu) was 17.4 ± 0.78 µM, the “Inhibition Type, hMAO-B” value [3] was “Mixed” and the “Inhibition Type, hMAO-B” value ([3]; listed as 1) was “mixed mode of inhibition”. The “% Stimulation, M2” value [4] was 12.6 ± 3.61%.
